According to publication PMC8131363 (Scientific Reports, 2021):

The molecules below were run on domestic short hair cats (assay: two-bottle choice test, cat water panel). Details: n = 24, 18 h, CaCl2 at 8 mM.
Type: in vivo, Felis catus
Description: Healthy neutered adult domestic short hair cats (Felis catus) formed the panel for all the choice tests described here (n = 24). […] All the cats taking part in the panel were individually fed dry adult cat food twice per day to their individual Maintenance Energy Requirements (MER). On test days, the cats were housed during 18 h overnight in purpose-built, behaviourally-enriched lodges. During the 18 h exposure, the cats only had access to the water solutions in the two-bottle testing apparatus, however they had free access to drinking water for the rest of the day when they were housed in a social group within an environmentally enriched room. All accommodation complied with the Code of Practice for Animal (Scientific Procedures) Act 1986. All solutions were made with deionised water (Purite, UK). All taste-active substances were food-grade or of the highest available purity. In some cases, salts were purchased instead of the pure compound due to solubility, stability or availability reasons. The in vivo testing was a two-bottle choice test and the methodology was adapted from[23]. All animal studies were in alignment with the Mars Animal Research Policy (Mars.com). These studies follow the 3Rs approach to experimentation with animals in scientific research[59] and were approved by the Waltham Animal Welfare and Ethical Review Board, and all the methods were carried-out in accordance with local guidelines and regulations, including the ARRIVE guidelines. […] The drinkers contained the test solution or the control solution, and the position of the drinkers presented to the cats was changed every day to control for any side bias, and each solution was offered twice to each cat. The cats were also offered at the same time as the water solutions, 50% of their daily food allowance. After 30 min. the food was removed and the cats were left in their individual lodges overnight, with access to the drinkers for 18 h. The next day the drinkers were weighed, and the remaining quantities were recorded as refused amounts. Total intakes were calculated using the difference of the offered and refused amounts. A correction for evaporation and any solution spillage was also performed on each data point. Using a bespoke statistical analysis toolkit, based on R software (R Foundation, Vienna, Austria), a mixed model analysis was performed on the difference in intake (g) between water solutions containing the different taste compound, including cat (random) as a factor and weighting by grouped cat specific variability. This was used to test the mean intake difference versus 0, i.e. no difference, at a 5% level. The mean difference in intake was reported with a 95% confidence interval. All individual tests were then combined into a single model and the difference between the tastant pairs (i.e. both conditions containing the kokumi tastant in water vs. in the umami amino acid mix) were directly compared to measure the impact of the compound on the intake of either water or the umami mix. Any data errors (e.g. following manual error such as solution spillage, overflow) were removed from the final data set for analysis.

SMILES | intake of compound solution compared to water
[Ca+2].[Cl-].[Cl-] [Ca^2+, CaCl2] | no significant difference
N[C@@H](CCC(=O)N[C@@H](CS)C(=O)NCC(=O)O)C(=O)O [Glutathione] | significantly lower acceptance
[Cl-].[Cl-].[Mg+2] [Mg^2+, MgCl2] | significantly lower acceptance

Same assay, conditions: n = 24, mix 15 mM L-His, 15 mM L-Trp, 15 mM L-Phe

SMILES | preference for umami amino acid mix with compound vs amino acid mix alone
[Ca+2].[Cl-].[Cl-] [Ca^2+, CaCl2] | significant preference
N[C@@H](CCC(=O)N[C@@H](CS)C(=O)NCC(=O)O)C(=O)O [Glutathione] | no statistically significant difference
[Cl-].[Cl-].[Mg+2] [Mg^2+, MgCl2] | significantly rejected

These molecules were tested against T1, cCaSR (Felis catus, UniProt C7FF08) (assay: cCaSR PAM luminescence assay, double injection with 0.5 mM CaCl2, HEK293/T-REx/natClytin-cCaSR). Details: Supplementary Table I, PAM assay, dash = no activity.
T1 sequence (C7FF08 1-1081): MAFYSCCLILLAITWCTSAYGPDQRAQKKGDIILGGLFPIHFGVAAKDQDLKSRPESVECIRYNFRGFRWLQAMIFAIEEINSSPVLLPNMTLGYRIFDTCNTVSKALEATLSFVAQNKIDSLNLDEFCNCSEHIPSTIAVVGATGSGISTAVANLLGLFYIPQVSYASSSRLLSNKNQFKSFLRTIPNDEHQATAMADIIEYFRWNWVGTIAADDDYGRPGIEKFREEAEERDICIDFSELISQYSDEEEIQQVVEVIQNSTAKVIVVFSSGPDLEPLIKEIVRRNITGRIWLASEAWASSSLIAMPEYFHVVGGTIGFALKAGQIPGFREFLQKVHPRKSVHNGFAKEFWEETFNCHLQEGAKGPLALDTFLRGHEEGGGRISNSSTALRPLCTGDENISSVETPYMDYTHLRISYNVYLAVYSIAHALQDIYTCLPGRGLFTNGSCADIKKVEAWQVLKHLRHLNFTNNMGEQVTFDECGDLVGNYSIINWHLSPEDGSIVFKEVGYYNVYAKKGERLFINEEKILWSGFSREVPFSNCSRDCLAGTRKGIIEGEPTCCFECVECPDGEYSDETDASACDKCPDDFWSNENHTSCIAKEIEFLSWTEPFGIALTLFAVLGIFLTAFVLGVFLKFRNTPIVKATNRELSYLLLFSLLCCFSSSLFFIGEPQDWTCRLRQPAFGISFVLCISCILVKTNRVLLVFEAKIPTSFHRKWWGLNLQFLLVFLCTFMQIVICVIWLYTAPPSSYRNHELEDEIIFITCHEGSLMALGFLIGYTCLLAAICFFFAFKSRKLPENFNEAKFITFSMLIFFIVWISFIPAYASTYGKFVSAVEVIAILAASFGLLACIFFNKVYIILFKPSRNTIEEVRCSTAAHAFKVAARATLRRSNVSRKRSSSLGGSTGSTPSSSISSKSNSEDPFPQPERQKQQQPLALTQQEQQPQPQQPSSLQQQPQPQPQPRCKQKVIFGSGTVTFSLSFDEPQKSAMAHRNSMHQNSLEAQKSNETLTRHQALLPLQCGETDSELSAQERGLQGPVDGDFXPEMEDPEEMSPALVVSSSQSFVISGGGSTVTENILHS
Description: The cCaSR expression constructs were stably-transfected in the mammalian cell line, HEK293/ T-REx/ natClytin. Transfections were performed by electroporation, following standard methodologies. Stably-transfected target and mock pools were obtained after 2–3 weeks of antibiotic selection, and clones were selected for testing. In order to evaluate the activity of each clone, 10 mM Calcium was injected onto the cells and the resulting luminescence was measured.
All compounds screened on the receptor were analysed in parallel with Calcium, on the HEK293/ T-REx/ natClytin-cCaSR or hCaSR stable or transient cell lines. Prior to the measurements, the cells were incubated with 10 µM of photoprotein substrate, Coelenterazine, prepared in Calcium-free Tyrode’s buffer at 37 °C for 3–4 h. All the data was captured using a FLIPR Tetra (Molecular Devices). A single or double injection protocol was used to capture the data for potential agonists and PAMs, respectively. The compounds tested were all prepared at desired concentration in Calcium-Free Tyrode’s buffer supplemented with 0.5% DMSO. For the activity determination of potential agonists, the single injection protocol was used, with CaCl2 as the positive control for each run. Each compound was injected into specific wells and the luminescence signal was measured for 1 min. for each compound. For potential PAMs, the double injection protocol was used. The first injection was identical to the one described above for potential agonists. A 20 min. resting period followed the first injection and a second injection of 0.5 mM CaCl2 in Calcium-free Tyrode’s buffer was injected to all wells, and the resulting luminescence signal was again measured for 1 min for each compound.
The half maximal effective concentrations (EC50) were identified by nonlinear regression using a variable slope model with the equation Y = Bottom + (X^Hillslope)*(Top–Bottom)/ (X^HillSlope + EC50^HillSlope), where Y is the agonist concentration, Top and Bottom are the plateaus in the same units as Y and HillSlope is the Slope factor or Hill slope. All calculations and plots were done using GraphPad Prism 8. […] In these cases the EC50 was noted as being higher than the maximum concentration used in the assay.

SMILES | EC50 PAM (M)
[Ca+2].[Cl-].[Cl-] [Ca^2+, CaCl2] | -
N[C@@H](CCC(=O)N[C@@H](CS)C(=O)NCC(=O)O)C(=O)O [Glutathione] | -
[Cl-].[Cl-].[Mg+2] [Mg^2+, MgCl2] | -
